Key:
[1] = xn = mol fraction of the nth substance listed; details: 101.3 kPa, Liquid
[2] = excess molar enthalpy (molar enthalpy of mixing); xn = mol fraction of the nth substance listed; details: 318.15 K, 101.3 kPa, Liquid

COC(=O)OC [dimethyl carbonate] + CCCCCC
[1]
Details | mass density [kg/m3]
293.15 K, x1 = 0.0722 | 677.3
293.15 K, x1 = 0.1448 | 696.6
293.15 K, x1 = 0.2286 | 720.8
293.15 K, x1 = 0.3026 | 744
293.15 K, x1 = 0.4102 | 780.8
293.15 K, x1 = 0.5062 | 817
293.15 K, x1 = 0.6026 | 857.1
293.15 K, x1 = 0.7052 | 904
293.15 K, x1 = 0.7974 | 950.5
293.15 K, x1 = 0.901 | 1008.3
293.15 K, x1 = 0.9506 | 1038.5
293.15 K, x1 = 1 | 1070
298.15 K, x1 = 0.082 | 674.9
298.15 K, x1 = 0.1269 | 686.7
298.15 K, x1 = 0.2131 | 710.9
298.15 K, x1 = 0.3197 | 744.1
298.15 K, x1 = 0.3787 | 764
298.15 K, x1 = 0.4712 | 797.6
298.15 K, x1 = 0.5121 | 813.4
298.15 K, x1 = 0.6067 | 852.6
298.15 K, x1 = 0.6987 | 894.5
298.15 K, x1 = 0.842 | 967.9
298.15 K, x1 = 0.9248 | 1015.9
298.15 K, x1 = 0.9615 | 1038.7
298.15 K, x1 = 1 | 1063.5
303.15 K, x1 = 0.0468 | 661.4
303.15 K, x1 = 0.0991 | 674.5
303.15 K, x1 = 0.1951 | 700.4
303.15 K, x1 = 0.295 | 730.4
303.15 K, x1 = 0.3832 | 759.5
303.15 K, x1 = 0.4865 | 797.1
303.15 K, x1 = 0.5899 | 838.7
303.15 K, x1 = 0.696 | 886.3
303.15 K, x1 = 0.7947 | 935.5
303.15 K, x1 = 0.8939 | 990.5
303.15 K, x1 = 0.9436 | 1020.3
303.15 K, x1 = 1 | 1056.5
313.15 K, x1 = 0.0495 | 652.7
313.15 K, x1 = 0.1 | 665.2
313.15 K, x1 = 0.2092 | 694.5
313.15 K, x1 = 0.3093 | 724.6
313.15 K, x1 = 0.4043 | 756.1
313.15 K, x1 = 0.4941 | 788.8
313.15 K, x1 = 0.6052 | 833.6
313.15 K, x1 = 0.7063 | 879.2
313.15 K, x1 = 0.8046 | 928.6
313.15 K, x1 = 0.9014 | 982.5
313.15 K, x1 = 0.9497 | 1011.6
313.15 K, x1 = 1 | 1043.4
318.15 K, x1 = 0.0773 | 654.9
318.15 K, x1 = 0.1163 | 664.6
318.15 K, x1 = 0.1621 | 676.6
318.15 K, x1 = 0.2689 | 706.8
318.15 K, x1 = 0.3288 | 725.3
318.15 K, x1 = 0.4097 | 752.4
318.15 K, x1 = 0.4753 | 776
318.15 K, x1 = 0.5256 | 795.2
318.15 K, x1 = 0.5452 | 803.1
318.15 K, x1 = 0.5879 | 820.6
318.15 K, x1 = 0.6449 | 845.2
318.15 K, x1 = 0.6976 | 869.3
318.15 K, x1 = 0.7615 | 900.4
318.15 K, x1 = 0.8039 | 922.2
318.15 K, x1 = 0.8422 | 942.9
318.15 K, x1 = 0.8808 | 964.3
318.15 K, x1 = 0.9311 | 993.8
318.15 K, x1 = 0.9657 | 1015.1
318.15 K, x1 = 1 | 1036.9

[2]
Details | excess molar enthalpy [kcal/mol]
x1 = 0.088 | 0.171
x1 = 0.1762 | 0.292
x1 = 0.2418 | 0.369
x1 = 0.3259 | 0.432
x1 = 0.4027 | 0.472
x1 = 0.4703 | 0.49
x1 = 0.5162 | 0.495
x1 = 0.5554 | 0.492
x1 = 0.6261 | 0.477
x1 = 0.6776 | 0.455
x1 = 0.7263 | 0.421
x1 = 0.7728 | 0.381
x1 = 0.8189 | 0.323
x1 = 0.866 | 0.262
x1 = 0.9005 | 0.204
x1 = 0.9393 | 0.13
x1 = 0.9822 | 0.0471
x1 = 1 | 0
